Data reported in patent US20190159450A1, “PYRIDINE-BASED COMPOUND INCLUDING ISOXAZOLINE RING AND USE THEREOF AS HERBICIDE” (MOGHU RESEARCH CENTER LTD., priority 2016, published 2019).

Assays:
Assay type in all cases: in vivo
[1] = test system: Xanthium strumarium; experiment: Herbicidal activity test, pre-weeds emergence treatment; conditions: Table 4, 200 g/ha, assessed 2 to 3 weeks after spraying, scale 0-10 (0: no effect, 10: complete death)
Procedure: (§1) A rectangular plastic pot with a surface area of 300 cm^2 was filled with sandy loam soil and mixed soil at a ratio of 1:1, and four kinds of weeds including Quamoclit pennata, Abutilon theophrasti Medicus, and Aeschynomene indica, Xanthium strumarium were sown therein. In another pot made in the same way, three kinds of crop seeds including maize, wheat, and rice were sown. The pots were watered and one day later, a medicament was sprayed thereon. The spraying was performed by using a track sprayer (R&D Sprayer, USA) equipped with Teejet 8002EVS (Spraying Systems Co., USA) nozzle, and the spray amount was controlled to be 1000 L/ha. A spray solution was prepared by dissolving the compound of each example or a control material in acetone, and then, adding the same amount of 0.1% (v/v) tween 20 aqueous solution thereto. The spray amount was 200 g/ha. The pots were placed in a greenhouse in which the temperature was maintained at 25° C. to 30° C. during the day and 15° C. to 25° C. during the night, and was regularly watered. After 2 to 3 weeks from the spraying of the compounds or the control material, the efficacy and the damages on each weed and each crop were assessed according to the scale of 0-10 (0: no effect, 10: complete death) scale and the results are shown in Table 3 below.
(§2) Pots for crops and weeds were prepared in the same manner as the test method illustrated in Table 3, and three kinds of weeds selected from Quamoclit pennata, Abutilon theophrasti Medicus, and Aeschynomene indica, Xanthium strumarium were used.

[2] = test system: Quamoclit pennata; experiment: as above; conditions: Table 4, 200 g/ha, assessed 2 to 3 weeks after spraying, scale 0-10 (0: no effect, 10: complete death)
Procedure: as §1, §2

[3] = test system: Aeschynomene indica; experiment: as above; conditions: Table 4, 200 g/ha, assessed 2 to 3 weeks after spraying, scale 0-10 (0: no effect, 10: complete death)
Procedure: as §1, §2

[4] = test system: Abutilon theophrasti Medicus; experiment: as above; conditions: Table 4, 200 g/ha, assessed 2 to 3 weeks after spraying, scale 0-10 (0: no effect, 10: complete death)
Procedure: as §1, §2

[5] = test system: maize; experiment: Herbicidal activity test, pre-weeds emergence treatment (crop damage); conditions: Table 4, 200 g/ha, assessed 2 to 3 weeks after spraying, scale 0-10 (0: no effect, 10: complete death)
Procedure: as §1, §2

[6] = test system: wheat; experiment: as above; conditions: Table 4, 200 g/ha, assessed 2 to 3 weeks after spraying, scale 0-10 (0: no effect, 10: complete death)
Procedure: as §1, §2

[7] = test system: rice; experiment: as above; conditions: Table 4, 200 g/ha, assessed 2 to 3 weeks after spraying, scale 0-10 (0: no effect, 10: complete death)
Procedure: as §1, §2

[8] = test system: maize; experiment: Herbicidal activity test, post-weeds emergence treatment (crop damage); conditions: spray amount 200 g/ha for crops, assessed after 2 to 3 weeks, 0: no effect, 10: complete death, Table 6
Procedure: as §1
(§3) Pots for crops and weeds were prepared in the same manner as in Experimental Example 1, and then, when the crops and the weeds were raised up to 2 weeks roughly on a third-leaf stage, the compounds and the control material were sprayed thereon in the same manner as described above. The spray amount was 200 g/ha. After 2 to 3 weeks from the spraying of the test substance or the control substance, the efficacy and the damages on each weed and each crop were assessed according to the scale of 0-10 (0: no effect, 10: complete death) scale.
as §2, with “5,” for “3,”, “four” for “three”, “used. The spray amount was 200 g/ha for crops and 50 g/ha for weeds.” for “used.”

[9] = test system: wheat; experiment: as above; conditions: spray amount 200 g/ha for crops, assessed after 2 to 3 weeks, 0: no effect, 10: complete death, Table 6
Procedure: as §1, §3
as §2, with “5,” for “3,”, “four” for “three”, “used. The spray amount was 200 g/ha for crops and 50 g/ha for weeds.” for “used.”

[10] = test system: rice; experiment: as above; conditions: spray amount 200 g/ha for crops, assessed after 2 to 3 weeks, 0: no effect, 10: complete death, Table 6
Procedure: as §1, §3
as §2, with “5,” for “3,”, “four” for “three”, “used. The spray amount was 200 g/ha for crops and 50 g/ha for weeds.” for “used.”

[11] = test system: Xanthium strumarium; experiment: Herbicidal activity test, post-weeds emergence treatment; conditions: spray amount 50 g/ha for weeds, assessed after 2 to 3 weeks, 0: no effect, 10: complete death, Table 6
Procedure: as §1, §3
as §2, with “5,” for “3,”, “four” for “three”, “used. The spray amount was 200 g/ha for crops and 50 g/ha for weeds.” for “used.”

[12] = test system: Quamoclit pennata; experiment: as above; conditions: spray amount 50 g/ha for weeds, assessed after 2 to 3 weeks, 0: no effect, 10: complete death, Table 6
Procedure: as §1, §3
as §2, with “5,” for “3,”, “four” for “three”, “used. The spray amount was 200 g/ha for crops and 50 g/ha for weeds.” for “used.”

[13] = test system: Aeschynomene indica; experiment: as above; conditions: spray amount 50 g/ha for weeds, assessed after 2 to 3 weeks, 0: no effect, 10: complete death, Table 6
Procedure: as §1, §3
as §2, with “5,” for “3,”, “four” for “three”, “used. The spray amount was 200 g/ha for crops and 50 g/ha for weeds.” for “used.”

[14] = test system: Abutilon theophrasti Medicus; experiment: as above; conditions: spray amount 50 g/ha for weeds, assessed after 2 to 3 weeks, 0: no effect, 10: complete death, Table 6
Procedure: as §1, §3
as §2, with “5,” for “3,”, “four” for “three”, “used. The spray amount was 200 g/ha for crops and 50 g/ha for weeds.” for “used.”

Row | Structure (SMILES) | PRE XANST (Xanthium strumarium), efficacy score [1] | PRE IPOAN (Quamoclit pennata), efficacy score [2] | PRE AESIN (Aeschynomene indica), efficacy score [3] | PRE ABUTH (Abutilon theophrasti Medicus), efficacy score [4] | PRE ZEAMX (maize), damage score [5] | PRE TRZAW (wheat), damage score [6] | PRE ORYSA (rice), damage score [7] | ZEAMX (maize) damage, scale of 0-10 [8] | TRZAW (wheat) damage, scale of 0-10 [9] | ORYSA (rice) damage, scale of 0-10 [10] | XANST (Xanthium strumarium) herbicidal efficacy, scale of 0-10 [11] | IPOAN (Quamoclit pennata) herbicidal efficacy, scale of 0-10 [12] | AESIN (Aeschynomene indica) herbicidal efficacy, scale of 0-10 [13] | ABUTH (Abutilon theophrasti Medicus) herbicidal efficacy, scale of 0-10 [14]
1 | COC(=O)c1nc(C2(C)CC(Br)=NO2)cc(N)c1Cl (stereo not drawn) [Compound 53, methyl 4-amino-3-chloro-6-(3-bromo-5-methyl-4,5-dihydroisoxazol-5-yl)picolinate] | 9 | 6 | 10 | 10 | 0 | 0 | 0 | 0 | 1 | 0 | 9 | 4 | 9 | 6
2 | CC1(c2cc(N)c(Cl)c(C(=O)O)n2)CC(Br)=NO1 (stereo not drawn) [Compound 54, 4-amino-3-chloro-6-(3-bromo-5-methyl-4,5-dihydroisoxazol-5-yl)picolinic acid] | 8 | 5 | 10 | 10 | 0 | 0 | 0 | 0 | 0 | 0 | 8 | 5 | 6 | 4
3 | CCOC(=O)c1nc(C2CC(Br)=NO2)cc(N)c1Cl (stereo not drawn) [Compound 73, ethyl 4-amino-6-(3-bromo-4,5-dihydroisoxazol-5-yl)-3-chloropicolinate] | 9 | 6 | 10 | 10 | 0 | 0 | 0 | 0 | 1 | 0 | 9 | 4 | 9 | 6
4 | CC(C)OC(=O)c1nc(C2CC(Br)=NO2)cc(N)c1Cl (stereo not drawn) [Compound 83, isopropyl 4-amino-6-(3-bromo-4,5-dihydroisoxazol-5-yl)-3-chloropicolinate] | 2 | 5 | 5 | 0 | 0 | 0 | 0 | 0 | 0 | 0 | 7 | 5 | 5 | 4
5 | CC(C)COC(=O)c1nc(C2CC(Br)=NO2)cc(N)c1Cl (stereo not drawn) [Compound 84, isobutyl 4-amino-6-(3-bromo-4,5-dihydroisoxazol-5-yl)-3-chloropicolinate] | 10 | 5 | 10 | 4 | 0 | 0 | 1 | 0 | 0 | 0 | 10 | 6 | 9 | 6
6 | Nc1cc(C2CC(Br)=NO2)nc(C(=O)Oc2ccccc2)c1Cl (stereo not drawn) [Compound 85, phenyl 4-amino-3-chloro-6-(3-bromo-4,5-dihydroisoxazol-5-yl)picolinate] | 10 | 6 | 10 | 8 | 0 | 0 | 0 | 0 | 0 | 0 | 10 | 5 | 9 | 5
7 | Nc1cc(C2CC(Br)=NO2)nc(C(=O)OCc2ccccc2)c1Cl (stereo not drawn) [Compound 86, benzyl 4-amino-3-chloro-6-(3-bromo-4,5-dihydroisoxazol-5-yl)picolinate] | 2 | 3 | 6 | 3 | 0 | 0 | 0 | 0 | 0 | 3 | 8 | 5 | 2 | 4
8 | Cc1ccc(COC(=O)c2nc(C3CC(Br)=NO3)cc(N)c2Cl)cc1 (stereo not drawn) [Compound 87, 4-methylbenzyl 4-amino-6-(3-bromo-4,5-dihydroisoxazol-5-yl)-3-chloropicolinate] | 5 | 7 | 9 | 6 | 0 | 0 | 0 | 1 | 0 | 0 | 10 | 4 | 9 | 6
9 | Nc1cc(C2CC(Br)=NO2)nc(C(=O)OCc2ccc(C(F)(F)F)cc2)c1Cl (stereo not drawn) [Compound 88, 4-trifluoromethylbenzyl 4-amino-6-(3-bromo-4,5-dihydroisoxazol-5-yl)-3-chloropicolinate] | 9 | 3 | 10 | 5 | 0 | 0 | 0 | 0 | 0 | 0 | 10 | 6 | 8 | 5
